Laboratory results from ChEMBL document CHEMBL1125238, “A new class of calcium antagonists. Synthesis and biological activity of 11-[(omega-aminoalkanoyl)amino]-6,6a,7,8,9,10,10a,11-octahydrodibenzo [b,e]thiepin derivatives” (J Med Chem, 1991).

Species on record: Rattus norvegicus
Assay: Calcium antagonistic activity assessed against calcium-induced constriction of potassium-depolarized rat aorta.
Type: functional
Details: not given

In order of rising pA2:
1. O=C(CCCN1CCN(c2ccc(F)cc2)CC1)N[C@H]1c2ccccc2[S+]([O-])C[C@@H]2CCCC[C@H]21 (stereo in doubt; 48)  6.48
2. O=C(CCCN1CCN(c2ccccc2)CC1)N[C@H]1c2ccccc2SC[C@@H]2CCCC[C@H]21.O=C(O)C(=O)O  7.68

Same assay, conditions: Rattus norvegicus, Aorta; read-out: pA2 (converted)

In order of rising Kb:
1. O=C(CCCN1CCN(c2ccc(F)cc2)CC1)N[C@H]1c2ccccc2SC[C@@H]2CCCC[C@H]21  6.92 nM
2. O=C(CCCN1CCN(c2ccc(F)cc2)CC1)N[C@H]1c2ccccc2SC[C@@H]2CCCC[C@@H]21  7.08 nM
3. O=C(CCCN1CCN(c2ccc(C(F)(F)F)cc2)CC1)N[C@H]1c2ccccc2SC[C@@H]2CCCC[C@H]21  8.91 nM
4. O=C(CCCN1CCN(c2ccc(Cl)cc2)CC1)N[C@H]1c2ccccc2SC[C@@H]2CCCC[C@H]21  15.1 nM
5. O=C(CCCN1CCN(c2cccc(F)c2)CC1)N[C@H]1c2ccccc2SC[C@@H]2CCCC[C@H]21  15.1 nM
6. O=C(CCCN1CCN(Cc2ccccc2)CC1)N[C@H]1c2ccccc2SC[C@@H]2CCCC[C@H]21  15.8 nM
7. COc1ccc2c(c1)[C@H](NC(=O)CCCN1CCN(c3ccc(F)cc3)CC1)[C@@H]1CCCC[C@H]1CS2  17 nM
8. O=C(CCCN1CCN(c2ccc(F)cc2)CC1)N[C@@H]1c2ccccc2SC[C@@H]2CCCC[C@@H]21  18.6 nM
9. O=C(CCCN1CCN(Cc2ccc([N+](=O)[O-])cc2)CC1)N[C@H]1c2ccccc2SC[C@@H]2CCCC[C@H]21  19.1 nM
10. COc1ccc(N2CCN(CCCC(=O)N[C@H]3c4ccccc4SC[C@@H]4CCCC[C@H]43)CC2)cc1  25.1 nM
11. O=C(CCCN1CCN(Cc2ccc(Cl)cc2)CC1)N[C@H]1c2ccccc2SC[C@@H]2CCCC[C@H]21  26.9 nM
12. O=C(CCCN1CCN(c2ccc(F)cc2)CC1)N[C@@H]1c2ccccc2SC[C@@H]2CCCC[C@H]21  26.9 nM
13. O=C(CCCCN1CCN(c2ccccc2)CC1)N[C@H]1c2ccccc2SC[C@@H]2CCCC[C@H]21  28.2 nM
14. O=C(CCCCCN1CCN(c2ccccc2)CC1)N[C@H]1c2ccccc2SC[C@@H]2CCCC[C@H]21  30.2 nM
15. O=C(CCCN1CCN(Cc2cccc(F)c2)CC1)N[C@H]1c2ccccc2SC[C@@H]2CCCC[C@H]21  30.2 nM
16. O=C(CCCN1CCN(C(c2ccccc2)c2ccccc2)CC1)N[C@H]1c2ccccc2SC[C@@H]2CCCC[C@H]21  40.7 nM
17. O=C(CCN1CCN(c2ccccc2)CC1)N[C@H]1c2ccccc2SC[C@@H]2CCCC[C@H]21  41.7 nM
18. O=C(CCCN1CCN(C2CCCCC2)CC1)N[C@H]1c2ccccc2SC[C@@H]2CCCC[C@H]21  45.7 nM
19. COc1ccccc1N1CCN(CCCC(=O)N[C@H]2c3ccccc3SC[C@@H]3CCCC[C@H]32)CC1  46.8 nM
20. COc1ccc(CN2CCN(CCCC(=O)N[C@H]3c4ccccc4SC[C@@H]4CCCC[C@H]43)CC2)cc1  56.2 nM
21. O=C(CCCN1CCN(c2cccc3ccccc23)CC1)N[C@H]1c2ccccc2SC[C@@H]2CCCC[C@H]21  57.5 nM
22. O=C(CCCN1CCN(Cc2ccc(F)cc2)CC1)N[C@H]1c2ccccc2SC[C@@H]2CCCC[C@H]21  57.5 nM
23. O=C(CCCN1CCN(c2ccc(O)cc2)CC1)N[C@H]1c2ccccc2SC[C@@H]2CCCC[C@H]21  69.2 nM
24. Cc1ccc(N2CCN(CCCC(=O)N[C@H]3c4ccccc4SC[C@@H]4CCCC[C@H]43)CC2)cc1  70.8 nM
25. O=C(CCCN1CCN(Cc2ccc(O)cc2)CC1)N[C@H]1c2ccccc2SC[C@@H]2CCCC[C@H]21  70.8 nM
26. O=C(CCCN1CCN(CCc2ccccc2)CC1)N[C@H]1c2ccccc2SC[C@@H]2CCCC[C@H]21  72.4 nM
27. O=C(CCCN1CCN(C/C=C/c2ccccc2)CC1)N[C@H]1c2ccccc2SC[C@@H]2CCCC[C@H]21  75.9 nM
28. O=C(CCCN1CCN(c2ccc(F)cc2)CC1)N[C@H]1c2cc(F)ccc2SC[C@@H]2CCCC[C@H]21  77.6 nM
29. O=C(CCCN1CCN(c2ccc(F)cc2)CC1)N[C@H]1c2cc(Cl)ccc2SC[C@@H]2CCCC[C@H]21  81.3 nM
30. O=C(CCCN1CCN(C(=O)c2ccccc2)CC1)N[C@H]1c2ccccc2SC[C@@H]2CCCC[C@H]21  97.7 nM
31. O=C(CN1CCN(c2ccccc2)CC1)N[C@H]1c2ccccc2SC[C@@H]2CCCC[C@H]21  105 nM
32. O=C(CCCN1CCN(c2ccc(F)cc2)CC1)N[C@H]1c2ccccc2OC[C@@H]2CCCC[C@H]21  138 nM
33. Cc1ccc2c(c1)[C@H](NC(=O)CCCN1CCN(c3ccc(F)cc3)CC1)[C@@H]1CCCC[C@H]1CS2  141 nM
34. CN(C(=O)CCN1CCN(c2ccccc2)CC1)[C@H]1c2ccccc2SC[C@@H]2CCCC[C@H]21  148 nM
35. c1ccc(N2CCN(CCCN[C@H]3c4ccccc4SC[C@@H]4CCCC[C@H]43)CC2)cc1  158 nM
36. O=C(CCCN1CCN(c2ccc(F)cc2)CC1)N[C@H]1c2ccccc2[S+]([O-])C[C@@H]2CCCC[C@H]21 (stereo in doubt; 49)  324 nM
